Reference: US7923573B2, “Benzene compound having 2 or more substituents” (Daiichi Sankyo Company, Limited, priority 2004, dated 2011)

Target: T1, LXRα (Homo sapiens, UniProt Q13133)
T1 construct: expressed in transfected cells; host or cells: CV-1 African green monkey kidney cells (ATCC CCL-70)
T1 sequence (Q13133 1-447): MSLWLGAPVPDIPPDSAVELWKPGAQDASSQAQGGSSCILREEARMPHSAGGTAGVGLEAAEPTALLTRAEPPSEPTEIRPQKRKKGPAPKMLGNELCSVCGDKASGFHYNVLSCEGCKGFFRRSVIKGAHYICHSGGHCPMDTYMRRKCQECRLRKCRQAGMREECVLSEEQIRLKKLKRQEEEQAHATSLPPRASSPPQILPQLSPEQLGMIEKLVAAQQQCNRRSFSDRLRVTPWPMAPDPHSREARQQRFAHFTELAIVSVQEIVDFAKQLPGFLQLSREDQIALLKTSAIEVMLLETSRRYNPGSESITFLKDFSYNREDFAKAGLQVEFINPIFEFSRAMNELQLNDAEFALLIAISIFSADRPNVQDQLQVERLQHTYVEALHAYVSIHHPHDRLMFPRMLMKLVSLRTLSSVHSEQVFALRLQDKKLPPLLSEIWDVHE
T1 sequence (P19793 1-462 partner): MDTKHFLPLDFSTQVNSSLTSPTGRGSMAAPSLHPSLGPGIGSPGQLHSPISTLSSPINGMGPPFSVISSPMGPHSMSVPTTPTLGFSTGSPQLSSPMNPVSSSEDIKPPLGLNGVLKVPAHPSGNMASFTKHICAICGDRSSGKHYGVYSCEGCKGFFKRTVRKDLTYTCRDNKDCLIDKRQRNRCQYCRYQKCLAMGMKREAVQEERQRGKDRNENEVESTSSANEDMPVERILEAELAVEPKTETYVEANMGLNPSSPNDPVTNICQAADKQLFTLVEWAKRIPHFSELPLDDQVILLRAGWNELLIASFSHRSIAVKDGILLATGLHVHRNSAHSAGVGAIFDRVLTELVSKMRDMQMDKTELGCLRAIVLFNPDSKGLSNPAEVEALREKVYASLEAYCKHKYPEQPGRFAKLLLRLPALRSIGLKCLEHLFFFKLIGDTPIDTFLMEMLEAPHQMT
Assay: Co-transfection assay (LXR/LXRE luciferase reporter), LXRα
Type: cell-based
Conditions: CV-1 cells transfected with hLXRα and LXRE luciferase reporter; agonist activity; read-out: EC50 value against LXRα
From the text: The effect of activating or inhibiting LXR transcription activity of a test compound can be measured by a co-transfection which is a cell-based assay. LXR is known to function by forming a heterodimer with RXR. In a co-transfection assay, LXR and RXR expression plasmids and a luciferase reporter expression plasmid containing three copies of an LXR-RXR heterodimer-responding DNA sequence are first inserted into mammalian cells by transient transfection. Next, when the transfected cells are treated with a test compound having LXR agonist activity, the transcription activating effect of LXR is enhanced, and the LXR agonist activity of a test compound can be measured as an increase in luciferase activity.
(1) CV-1 African green monkey kidney cells (ATCC CCL-70)
(2) Co-transfection expression plasmid, pcDNA-hLXRα or pcDNA-hLXRβ, reporter (LXREx3-pTAL-Luc Vector)
(3) Lipofect AMINE, Plus Reagent (Invitrogen) transfection reagent
(4) Cell lysis buffer [Passive lysis buffer; 5× (Promega Corporation) is diluted with distilled water]
(5) Luciferase assay reagent (Promega Corporation)
(6) Medium (Dulbecco's Modified Eagle Medium (Gibco) 500 ml, Gentamicin Reagent Solution (Gibco) 2.5 ml, 2 mM L-Gluta Max I Supplement (Gibco) 5.0 ml, MEM Sodium pyruvate solution (Gibco) 5.0 ml, penicillin-streptomycin (Gibco) 5.0 ml, charcoal/dextran-treated FBS (HyClone) 50 ml) (7) OPTI-MEM I Reduced-Serum Medium (Gibco) Adjustment of Screening Reagents
The aforementioned CV-1 cells were disseminated into a 96-well assay plate (Costar 3610) to a concentration of 2×10^4 cells/[…]/well followed by incubating overnight at 37° C.
DNA transfection was carried out according to the protocol provided with the transfection reagent. 10 μl of OPTI-MEM I Reduced-Serum Medium (Gibco) and 0.5 μl of Lipofect AMINE (Invitrogen) were added to two 50 ml tubes followed by shaking the mixed solutions to obtain Solution A. The substances of (1) below were respectively added to each tube followed by shaking the mixed solutions and allowing to stand undisturbed for 15 minutes to obtain Solution B. In addition, Solution C was obtained by carrying out the same procedure using the substances of (2) below.
(1) 10 μl of OPTI-MEM I Reduced-Serum Medium, 1 μl of Plus Reagent (Invitrogen) and 0.1 μg of DNA [PCMX-LXRα (33 ng) and LXRE (66 ng)];
(2) 10 μl of OPTI-MEM I Reduced-Serum Medium, 1 μl of Plus Reagent (Invitrogen) and 0.1 μg of DNA [PCMX-LXRβ (33 ng) and LXRE (66 ng)].
The entire amount of the aforementioned Solution A was respectively added to the aforementioned Solution B followed by shaking and allowing to stand undisturbed for 15 minutes to obtain LXRα solution. In addition, LXRβ solution was obtained by carrying out the same procedure using the aforementioned Solutions C and A.
After removing the medium from the 96-well assay plate used to Incubate the CV-1 cells as described above by decanting, and completely removing any moisture, 50 μl/well of OPTI-MEM I Reduced-Serum Medium were added to each well followed by addition of the aforementioned LXRα solution or LXRβ solution to each well at 20 μl/well and incubating for 3 hours at 37° C.
Three hours later, 20% charcoal FBS-DMEM was added to each well at 70 μl/well. FBS-DMEM used for the medium was prepared by mixing charcoal and dextran-treated FBS at a ratio of 9:1. Next, test compounds adjusted to concentrations of 1 mM, 0.3 mM, 0.1 mM, 30 μM, 10 μM, 3 μM, 1 μM or 0 μM with DMSO were added to each well at 1.4 μl/well. […]

Row | Structure (SMILES) | EC50 [µM]
1 | CC(C)(C)OC(=O)c1c(COc2ccc(-c3ccc(CC(=O)O)cc3)c(F)c2)ccc(C(F)(F)F)c1O [Example 14, (4′-{[2-(tert-Butoxycarbonyl)-3-hydroxy-4-(trifluoromethyl)benzyl]oxy}-2′-fluoro-1,1′-biphenyl-4-yl)acetic acid] | ≤ 5
2 | CC(C)(C)OC(=O)c1c(COc2ccc(-c3ccc(C4(C(=O)O)CC4)cc3)cc2)ccc(C(F)(F)F)c1O [Example 15, 1-(4′-{[2-(tert-Butoxycarbonyl)-3-hydroxy-4-(trifluoromethyl)benzyl]oxy}-1,1′-biphenyl-4-yl)cyclopropanecarboxylic acid] | ≤ 5
3 | CN(C)C(=O)Cc1ccc(-c2ccc(OCc3ccc(C(F)(F)F)c(O)c3C(=O)OC(C)(C)C)cc2)cc1 [Example 49, tert-Butyl 6-[({4′-[2-(dimethylamino)-2-oxoethyl]-1,1′-biphenyl-4-yl}oxy)methyl]-2-hydroxy-3-(trifluoromethyl)benzoate] | ≤ 5
4 | CC(C)(C)OC(=O)c1c(COc2ccc(-c3cc(CC(=O)O)ccc3F)cc2)ccc(C(F)(F)F)c1O [Example 52, (4′-{[2-(tert-Butoxycarbonyl)-3-hydroxy-4-(trifluoromethyl)benzyl]oxy}-6-fluoro-1,1′-biphenyl-3-yl)acetic acid] | ≤ 5
5 | CNC(=O)Cc1ccc(-c2ccc(OCc3ccc(C(F)(F)F)c(O)c3C(=O)OC(C)(C)C)cc2)cc1 [Example 50, tert-Butyl 2-hydroxy-6-[({4′-[2-(methylamino)-2-oxoethyl]-1,1′-biphenyl-4-yl}oxy)methyl]-3-trifluoromethylbenzoate] | ≤ 5
